Source: patent publication US10792282B2, “Protein kinase C inhibitors and uses thereof” (Rigel Pharmaceuticals, Inc., priority 2013, dated 2020)
pEC50: −log10 of the molar value. Read-outs that look alike come from different tables or passages of the source.

Test system: PKC mediated IL-2 production
Assay: IL-2 ELISA, human primary T cell, anti CD3+CD28+ (whole cell functional assay)
Format: cell-based
Procedure: Human primary T cells were prepared as follows. Fresh PBMC's from All Cells (Cat # PB002) were re-suspended in RPMI (RPMI-1640 with L-Glutamine; Mediatech, Inc., Herndon Va., cat. #10-040-CM) with 10% FBS and seeded into flasks and incubated at 37° C. for 2 hours to allow the monocytes to adhere. The non-adherent cells were then centrifuged and re-suspended in RPMI medium containing 40 U/ml IL2 and seeded into a flask pre-coated with 1 μg/ml aCD3 and 5 ug/ml aCD28 (Anti-Human CD3, BD Pharmingen Catalog #555336, Anti-Human CD28, Beckman Coulter Catalog # IM1376). The cells were stimulated for 3-4 days, then transferred to a fresh flask and maintained in RPMI (RPMI-1640 with L-Glutamine; Mediatech, Inc., Herndon Va., cat. #10-040-CM) with 10% FBS and 40 U/ml IL-2.
(§1) Human primary T cells (100,000 cells per well) were pre-incubated with or without test compound in RPMI-1640 with L-Glutamine and 10% FBS for 1 hour at 37° C. Cells were then stimulated by transferring them to round-bottom 96-well plates pre-coated with 1 μg/ml αCD3 and 5 μg/ml αCD28. For counter assay, cells were instead stimulated by adding 8× stock solutions of PMA and ionomycin in RPMI-1640 with L-Glutamine and 10% FBS (for final concentrations of 0.5 ng/ml PMA and 0.1 μM ionomycin, both from Calbiochem). Cells were incubated at 37° C. for 24 hours before 100 μL supernatants were harvested for quantification of IL-2 by ELISA using Human IL-2 Duoset ELISA Kit from R and D Systems, Cat. # DY202E.
Compounds 1-90 were tested in a whole cell functional assay for PKC mediated IL-2 production as follows. Human primary T cell isolation and culture: Human primary T cells were prepared as follows. Whole blood was obtained from a healthy volunteer, mixed 1:1 with PBS, layered on to Ficoll Hypaque (Amersham Pharmacia Biotech, Piscataway, N.J., Catalog #17-1440-03) in 2:1 blood/PBS:ficoll ratio and centrifuged for 30 minutes at 4° C. at 1750 rpm. The cells at the serum: ficoll interface were recovered and washed twice with 5 volumes of PBS. These freshly isolated human peripheral blood mononuclear cells were cultured in Yssel's medium containing 40 U/ml IL2 in a flask pre-coated with 1 μg/ml αCD3 and 5 μg/ml αCD28 (Anti-Human CD3, BD Pharmingen Catalog #555336, Anti-Human CD28, Beckman Coulter Catalog # IM1376). The cells were stimulated for 3-4 days, then transferred to a fresh flask and maintained in RPMI (RPMI-1640 with L-Glutamine; Mediatech, Inc., Herndon Va., cat. #10-040-CM) with 10% FBS and 40 U/ml IL-2. The primary T-cells were then washed twice with PBS to remove the IL-2.
as §1, with “Primary T cell stimulation and IL2 ELISA: Human primary” for “Human primary”, “compound in Yssel's medium for 1” for “compound in RPMI-1640 with L-Glutamine and 10% FBS for 1”, “ionomycin in Yssels (for final” for “ionomycin in RPMI-1640 with L-Glutamine and 10% FBS (for final”, “and 0.1 uM ionomycin, both” for “and 0.1 μM ionomycin, both”

[1] = Homo sapiens, T-cell, 24 h, IL-2 production, human primary T cells stimulated with αCD3 and αCD28, 24 hours, IL-2 by ELISA, read-out: EC50
[2] = Homo sapiens, T-cell, human primary T cells stimulated with αCD3 and αCD28, IL-2 by ELISA, read-out: EC50 (blocked IL-2 production)
[3] = IL-2 production, human primary T cells stimulated with αCD3 and αCD28, 24 hours, IL-2 by ELISA, read-out: EC50

**Q.** With `Cn1nnn(-c2cc(Nc3ncc(F)c(N[C@@H]4C[C@@H]5C[C@@H](F)CN5C(C)(C)C4)n3)c(F)cc2C2CC2)c1=O` [Compound 64, 1-(5-(4-((2R,7R,8aR)-2-fluoro-octahydro-5,5-dimethylindolizin-7-ylamino)-5-fluoropyrimidin-2-ylamino)-2-cyclopropyl-4-fluorophenyl)-4-methyl-1H-tetrazol-5(4H)-one] as the molecule, how does the pEC50 [1] read?
**A.** > 6.30

**Q.** What about the pEC50 [2] of the same molecule?
**A.** > 5.00

**Q.** With `CC1C(Nc2nc(Nc3cc(-n4nnn(C)c4=O)c(C4CC4)cc3F)ncc2F)CC(C)(C)N2CCCC12` (single isomer, unassigned) [Compound 69, 1-(5-(5-Fluoro-4-(octahydro-5,5,8-trimethylindolizin-7-ylamino)pyrimidin-2-ylamino)-2-cyclopropyl-4-fluorophenyl)-4-methyl-1H-tetrazol-5(4H)-one] as the molecule, how does the pEC50 [1] read?
**A.** > 6.00

**Q.** What about the pEC50 [2] of the same molecule?
**A.** > 5.00

**Q.** With `CC1(C)CC(Nc2nc(Nc3ccc(O[C@@H]4CCOC4)c(C#N)c3)ncc2F)CC2CCCN21` (single isomer, unassigned) [Compound 59] as the molecule, how does the pEC50 [3] read?
**A.** > 6.30

**Q.** How did the pEC50 [3] turn out when `Cn1nnn(-c2cc(Nc3ncc(F)c(NC4CC5CCCN5C(C)(C)C4)n3)ccc2OC2COC2)c1=O` (racemic) [Compound 38, 1-(5-(5-fluoro-4-(octahydro-5,5-dimethylindolizin-7-ylamino)pyrimidin-2-ylamino)-2-(oxetan-3-yloxy)phenyl)-4-methyl-1H-tetrazol-5(4H)-one] was run?
**A.** > 6.30

**Q.** `CC1(C)CC(Nc2nc(Nc3ccc(OC4COC4)c(C#N)c3)ncc2F)CC2CCCN21` (single isomer, unassigned) [Compound 63, 5-(5-fluoro-4-(octahydro-5,5-dimethylindolizin-7-ylamino)pyrimidin-2-ylamino)-2-(oxetan-3-yloxy)benzonitrile] was tested. Which pEC50 [1] did it give?
**A.** > 6.30

**Q.** What about the pEC50 [2] of the same molecule?
**A.** > 5.00

**Q.** How did the pEC50 [1] turn out when `Cn1nnn(-c2cc(Nc3ncc(F)c(N[C@@H]4C[C@@H]5CCCN5C(C)(C)C4)n3)c(F)cc2OC(C)(C)CO)c1=O` [Compound 85, 1-(2-(1-hydroxy-2-methylpropan-2-yloxy)-5-(4-((7R,8aS)-octahydro-5,5-dimethylindolizin-7-ylamino)-5-fluoropyrimidin-2-ylamino)-4-fluorophenyl)-4-methyl-1H-tetrazol-5(4H)-one] was run?
**A.** > 6.30

**Q.** What about the pEC50 [2] of the same molecule?
**A.** > 5.00

**Q.** With `Cc1nnnn1-c1cc(Nc2ncc(F)c(NC3CCN4CCCC4C3)n2)c(F)cc1C1CC1` (racemic) [Compound 28, (±)-N2-(4-cyclopropyl-2-fluoro-5-(5-methyl-1H-tetrazol-1-yl)phenyl)-5-fluoro-n^4-(octahydroindolizin-7-yl)pyrimidine-2,4-diamine] as the molecule, how does the pEC50 [1] read?
**A.** > 7.00

**Q.** And the pEC50 [2]?
**A.** > 5.00

**Q.** How did the pEC50 [3] turn out when `CC1(C)CC(Nc2nc(Nc3cc(-n4cnnn4)c(C4CC4)cc3F)ncc2F)CC2CCCN21` (racemic) [Compound 55, (±)-N2-(4-cyclopropyl-2-fluoro-5-(1H-tetrazol-1-yl)phenyl)-5-fluoro-n^4-(octahydro-5,5-dimethylindolizin-7-yl)pyrimidine-2,4-diamine] was run?
**A.** > 6.30

**Q.** `Cn1nnn(-c2cc(Nc3ncc(F)c(N[C@@H]4CCN5C(CCC5(C)C)C4)n3)c(F)cc2C2CC2)c1=O` (mixture of isomers) [Compound 25] was tested. Which pEC50 [3] did it give?
**A.** > 5.00

**Q.** `CC(C)N1CCC(Oc2ccc(Nc3ncc(F)c(NC4CC5CCCN5C(C)(C)C4)n3)cc2OC(F)F)CC1` (centres unmarked) [Compound 8, (R/S, S/R, R/R, S/S)—N^2-(4-(1-isopropylpiperidin-4-yloxy)-3-(difluoromethoxy)phenyl)-5-fluoro-N^4-(octahydro-5,5-dimethylindolizin-7-yl)pyrimidine-2,4-diamine] was tested. Which pEC50 [3] did it give?
**A.** > 6.00

**Q.** With `COc1cc(Nc2ncc(F)c(NC3CC4CCCN4C(C)(C)C3)n2)cc(-n2nnnc2C)c1` (centres unmarked) [Compound 12, (R/S, S/R, R/R, S/S)-5-fluoro-N4-(octahydro-5,5-dimethylindolizin-7-yl)N2-(3-methoxy-5-(5-methyl-1H-tetrazol-1-yl)phenyl)pyrimidine-2,4-diamine] as the molecule, how does the pEC50 [3] read?
**A.** > 6.00

**Q.** `Cn1nnn(-c2cc(Nc3ncc(F)c(N[C@@H]4C[C@@H]5CCCN5C(C)(C)C4)n3)c(F)cc2O)c1=O` [Compound 89, 1-(5-(4-((7R,8aS)-octahydro-5,5-dimethylindolizin-7-ylamino)-5-fluoropyrimidin-2-ylamino)-4-fluoro-2-hydroxyphenyl)-4-methyl-1H-tetrazol-5(4H)-one] was tested. Which pEC50 [1] did it give?
**A.** > 5.00

**Q.** And the pEC50 [2]?
**A.** > 5.00

**Q.** `Cc1ccc(Nc2ncc(F)c(N[C@H]3C[C@@H]4CC(F)(F)CN4C(C)(C)C3)n2)cc1C#N` [Compound 44, (4-((7S,8aR)-2,2-difluoro-octahydro-5,5-dimethylindolizin-7-ylamino)-5-fluoropyrimidin-2-ylamino)-2-methylbenzonitrile] was tested. Which pEC50 [1] did it give?
**A.** > 5.00

**Q.** And the pEC50 [2]?
**A.** > 5.00

**Q.** How did the pEC50 [3] turn out when `CC(C)N1CCC(Oc2ccc(Nc3ncc(F)c(NC4CC5CCCN5C(C)(C)C4)n3)cc2OC(F)F)CC1` (centres unmarked) [Compound 10, (R/S, S/R, R/R, S/S)—N^2-(4-(1-isopropylpiperidin-4-yloxy)-3-(difluoromethoxy)phenyl)-5-fluoro-N^4-(octahydro-5,5-dimethylindolizin-7-yl)pyrimidine-2,4-diamine] was run?
**A.** > 6.30

**Q.** `CC1(C)C[C@H](Nc2nc(Nc3cc(-n4cnnn4)c(C4CC4)cc3F)ncc2F)C[C@@H]2CC(F)(F)CN21` [Compound 46, N^2-(4-cyclopropyl-2-fluoro-5-(1H-tetrazol-1-yl)phenyl)-5-fluoro-N^4-((7R,8aR)-2,2-difluoro-octahydro-5,5-dimethylindolizin-7-yl)pyrimidine-2,4-diamine] was tested. Which pEC50 [1] did it give?
**A.** > 6.00

**Q.** What about the pEC50 [2] of the same molecule?
**A.** > 5.00

**Q.** How did the pEC50 [2] turn out when `C[C@H](O)COc1cc(F)c(Nc2ncc(F)c(N[C@@H]3C[C@@H]4CCCN4C(C)(C)C3)n2)cc1-n1nnn(C)c1=O` [Compound 81, 1-(2-((S)-2-hydroxypropoxy)-5-(4-((7R,8aS)-octahydro-5,5-dimethylindolizin-7-ylamino)-5-fluoropyrimidin-2-ylamino)-4-fluorophenyl)-4-methyl-1H-tetrazol-5(4H)-one] was run?
**A.** > 5.00

**Q.** And the pEC50 (T-cell, IL-2 production, human primary T cells stimulated with αCD3 and αCD28, 24 hours, IL-2 by ELISA, read-out: EC50)?
**A.** > 7.00

**Q.** How did the pEC50 [3] turn out when `Cc1ncc(Nc2ncc(F)c(NC3CC4CCCN4C(C)(C)C3)n2)cc1-n1nnnc1C` (centres unmarked) [Compound 15] was run?
**A.** > 6.30

**Q.** `Cn1nnn(-c2cc(Nc3ncc(F)c(N[C@H]4C[C@@H]5C[C@@H](F)CN5C(C)(C)C4)n3)c(F)cc2C2CC2)c1=O` [Compound 65, 1-(5-(4-((2R,7S,8aR)-2-fluoro-octahydro-5,5-dimethylindolizin-7-ylamino)-5-fluoropyrimidin-2-ylamino)-2-cyclopropyl-4-fluorophenyl)-4-methyl-1H-tetrazol-5(4H)-one] was tested. Which pEC50 [1] did it give?
**A.** > 5.00

**Q.** What about the pEC50 [2] of the same molecule?
**A.** > 5.00

**Q.** How did the pEC50 [1] turn out when `Cn1nnn(-c2cc(Nc3ncc(F)c(N[C@@H]4C[C@@H]5C[C@H](F)CN5C(C)(C)C4)n3)c(F)cc2C2CC2)c1=O` [Compound 67, 1-(5-(4-((2S,7R,8aR)-2-fluoro-octahydro-5,5-dimethylindolizin-7-ylamino)-5-fluoropyrimidin-2-ylamino)-2-cyclopropyl-4-fluorophenyl)-4-methyl-1H-tetrazol-5(4H)-one] was run?
**A.** > 6.30

**Q.** And the pEC50 [2]?
**A.** > 5.00

**Q.** How did the pEC50 [1] turn out when `Cn1nnn(-c2cc(Nc3ncc(F)c(N[C@@H]4C[C@@H]5CCC(=O)N5C(C)(C)C4)n3)c(F)cc2C2CC2)c1=O` (racemic) [Compound 31, 1-(5-(5-fluoro-4-(hexahydro-5,5-dimethylindolizin-3(5H)-one-7-ylamino)pyrimidin-2-ylamino)-2-cyclopropyl-4-fluorophenyl)-4-methyl-1H-tetrazol-5(4H)-one] was run?
**A.** > 5.00

**Q.** And the pEC50 [2]?
**A.** > 5.00
